Source: US20230151003A1, “COMPOUNDS AND METHODS OF USE” (Exelixis, Inc., priority 2020, published 2023)

Key:
Format in all cases: cell-based
Mer = target: T1, Mer (Homo sapiens, UniProt Q12866); assay: Mer autophosphorylation ELISA in transient transfected 293A cells; conditions: Table 3 Cellular Activities; MERTK-transfected 293A cells, phospho-Mer ELISA
T1 construct: host or cells: 293A cells (Thermo Fisher #R70507)
T1 sequence (Q12866 21-999): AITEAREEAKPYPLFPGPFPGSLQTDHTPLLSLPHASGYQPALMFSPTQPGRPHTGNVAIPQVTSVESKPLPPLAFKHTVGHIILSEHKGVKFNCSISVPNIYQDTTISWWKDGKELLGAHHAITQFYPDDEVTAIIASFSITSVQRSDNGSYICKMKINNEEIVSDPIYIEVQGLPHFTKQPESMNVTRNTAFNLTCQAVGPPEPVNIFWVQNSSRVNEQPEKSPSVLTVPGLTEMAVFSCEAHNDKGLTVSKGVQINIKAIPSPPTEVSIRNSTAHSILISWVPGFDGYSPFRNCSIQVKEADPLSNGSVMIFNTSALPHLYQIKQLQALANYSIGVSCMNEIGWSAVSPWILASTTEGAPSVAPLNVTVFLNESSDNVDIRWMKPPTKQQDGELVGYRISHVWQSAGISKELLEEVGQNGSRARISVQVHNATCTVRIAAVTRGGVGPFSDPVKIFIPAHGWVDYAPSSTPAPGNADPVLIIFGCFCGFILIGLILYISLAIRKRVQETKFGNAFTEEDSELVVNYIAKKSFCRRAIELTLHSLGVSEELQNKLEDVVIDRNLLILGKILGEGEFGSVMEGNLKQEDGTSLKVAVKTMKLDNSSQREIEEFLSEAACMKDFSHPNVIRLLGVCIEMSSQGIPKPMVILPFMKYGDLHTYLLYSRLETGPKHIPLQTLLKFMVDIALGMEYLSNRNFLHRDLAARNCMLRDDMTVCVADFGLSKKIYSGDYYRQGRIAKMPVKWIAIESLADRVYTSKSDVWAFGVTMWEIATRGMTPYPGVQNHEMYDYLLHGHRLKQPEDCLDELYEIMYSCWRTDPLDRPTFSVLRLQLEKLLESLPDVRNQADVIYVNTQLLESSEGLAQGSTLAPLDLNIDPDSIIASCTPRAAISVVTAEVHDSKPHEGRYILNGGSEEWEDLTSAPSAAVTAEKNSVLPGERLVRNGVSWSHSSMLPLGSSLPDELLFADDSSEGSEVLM
Experimental: 293A cells (Thermo Fisher #R70507) were seeded at 1.5×10^6 cells/well onto 100 mm dish (Greiner #664169), in DMEM (Thermo Fisher #11995-040) containing 10% FBS (Thermo Fisher #26140-079), 1% MEM NEAA (Thermo Fisher #11140-050), 1% GlutaMax (Thermo Fisher #35050-061), and 1% Penicillin Streptomycin (Thermo Fisher #15140-122). 293A cells were incubated at 37° C., 5% CO2 for 24 h and then transfected with 6μg MERTK DNA (Genecopoeia #EX-Z8208-M02) using TransIT LT1 transfection reagent (Mirus-Bio #MIR2305). After 24 h incubation, the transfected 293A cells were seeded at 1×10^5 cells/well onto 96-well plates (Corning #3904) in DMEM growth medium overnight. Test compounds were serially diluted to produce an 8-point dose curve in fresh serum-free medium to a final concentration of 0.3% DMSO (vehicle) and added to the cells and incubated for 1 h. Cells were then immediately lysed with 150 μL of cold 1× lysis buffer […], 137 mM sodium chloride, 2 mM EDTA, 10% glycerol, 1% NP-40 alternative, 1 mM activated sodium orthovanadate, 1 mM PefaBloc SC (Sigma-Aldrich #11429868001), protease/phosphatase inhibitor tablet (Thermo Fisher #A32959)]. Lysates were clarified by centrifugation and 50 μL/well added into the human phospho-Mer DuoSet IC ELISA (R&D Systems #DYC2579-2). Assay was performed according to manufacturer's instructions and sample phospho-Mer concentrations were extrapolated using human phospho-Mer control (R&D Systems #841793) as a standard. Positive control wells (100% activity) contained DMSO-treated cell lysates. Negative control wells (0% activity) contained reference inhibitor-treated cell lysates. IC50 values were calculated by nonlinear regression analysis using a 4-parameter logistic curve fit in ActivityBase XE (IDBS).

Met = Met (Homo sapiens, UniProt P08581); assay: Met autophosphorylation ELISA in PC-3 cells; design: endogenous in cells; host or cells: PC-3 prostate cancer cells (ATCC #CRL-1435); conditions: Table 3 Cellular Activities, HGF-stimulated, phospho-Met ELISA, read-out: c-Met IC50
Experimental: PC-3 prostate cancer cells (ATCC #CRL-1435) were seeded at 4×10^4 cells/well onto 24-well plates (Greiner #662165), in DMEM (Thermo Fisher #11995-040) containing 10% FBS (Thermo Fisher #26140-079), 1% MEM NEAA (Thermo Fisher #11140-050), 1% GlutaMax (Thermo Fisher #35050-061), and 1% Penicillin Streptomycin (Thermo Fisher #15140-122). PC-3 cells were incubated at 37° C., 5% CO2 for 24 h and then starved for 3 h in serum-free medium. Test compounds were serially diluted to produce an 8-point dose curve in fresh serum-free medium to a final concentration of 0.3% DMSO (vehicle) and added to the cells and incubated for 1 h. Cells were then stimulated with 100 ng/mL recombinant human HGF (R&D Systems #294-HG-250) for 10 min, washed with cold PBS, and immediately lysed with 130 μL of cold 1× lysis buffer [20 mM Tris, 137 mM sodium chloride, 2 mM EDTA, 10% glycerol, 1% NP-40 alternative, 1 mM activated sodium orthovanadate, 1 mM PefaBloc SC (Sigma-Aldrich #11429868001), protease/phosphatase inhibitor tablet (Thermo Fisher #A32959)]. Lysates were clarified by centrifugation and 100 μL/well added into the PathScan phospho-Met (panTyr) Sandwich ELISA (Cell Signaling Technology #7333). Assay was performed according to manufacturer's instructions. Positive control wells (100% activity) contained HGF-stimulated, DMSO-treated cell lysates. Negative control wells (0% activity) contained HGF-stimulated, reference inhibitor-treated cell lysates. IC50 values were calculated by nonlinear regression analysis using a 4-parameter logistic curve fit in ActivityBase XE (IDBS).

KDR = KDR (Homo sapiens, UniProt P35968); assay: KDR autophosphorylation ELISA in HUVEC cells; design: endogenous in cells; host or cells: HUVEC (Lonza #C2519A); conditions: Table 3 Cellular Activities, VEGF165-stimulated, phospho-KDR ELISA
Experimental: Human umbilical vein endothelial cells or HUVEC (Lonza #C2519A) were seeded at 2×10^4 cells/well onto 96-well plates (Corning #3904), in EGM-2 growth medium (Lonza #CC-3162) containing 1% Penicillin Streptomycin (Thermo Fisher #15140-122). HUVEC cells were incubated at 37° C., 5% CO2 for 24 h and then starved for 24 h in serum-free EBM-2 basal medium (Lonza #CC-3156) containing 1% Penicillin Streptomycin. Test compounds were serially diluted to produce an 8-point dose curve in fresh serum-free medium to a final concentration of 0.3% DMSO (vehicle) and added to the cells and incubated for 1 h. Cells were then stimulated with 100 ng/mL recombinant human VEGF165 (R&D Systems #293-VE-500) for 5 min, washed with cold PBS, and immediately lysed with 130 μL of cold 1× lysis buffer [20 mM Tris, 137 mM sodium chloride, 2 mM EDTA, 10% glycerol, 1% NP-40 alternative, 1 mM activated sodium orthovanadate, 1 mM PefaBloc SC (Sigma-Aldrich #11429868001), protease/phosphatase inhibitor tablet (Thermo Fisher #A32959)]. Lysates were collected and 100 μL/well added into the human phospho-KDR DuoSet IC ELISA (R&D Systems #DYC1766-2). Assay was performed according to manufacturer's instructions and sample phospho-KDR concentrations were extrapolated using human phospho-KDR control (R&D Systems #841421) as a standard. Positive control wells (100% activity) contained VEGF165-stimulated, DMSO-treated cell lysates. Negative control wells (0% activity) contained non-stimulated cell lysates. IC50 values were calculated by nonlinear regression analysis using a 4-parameter logistic curve fit in ActivityBase XE (IDBS).

Sequence of Met (P08581 25-1390): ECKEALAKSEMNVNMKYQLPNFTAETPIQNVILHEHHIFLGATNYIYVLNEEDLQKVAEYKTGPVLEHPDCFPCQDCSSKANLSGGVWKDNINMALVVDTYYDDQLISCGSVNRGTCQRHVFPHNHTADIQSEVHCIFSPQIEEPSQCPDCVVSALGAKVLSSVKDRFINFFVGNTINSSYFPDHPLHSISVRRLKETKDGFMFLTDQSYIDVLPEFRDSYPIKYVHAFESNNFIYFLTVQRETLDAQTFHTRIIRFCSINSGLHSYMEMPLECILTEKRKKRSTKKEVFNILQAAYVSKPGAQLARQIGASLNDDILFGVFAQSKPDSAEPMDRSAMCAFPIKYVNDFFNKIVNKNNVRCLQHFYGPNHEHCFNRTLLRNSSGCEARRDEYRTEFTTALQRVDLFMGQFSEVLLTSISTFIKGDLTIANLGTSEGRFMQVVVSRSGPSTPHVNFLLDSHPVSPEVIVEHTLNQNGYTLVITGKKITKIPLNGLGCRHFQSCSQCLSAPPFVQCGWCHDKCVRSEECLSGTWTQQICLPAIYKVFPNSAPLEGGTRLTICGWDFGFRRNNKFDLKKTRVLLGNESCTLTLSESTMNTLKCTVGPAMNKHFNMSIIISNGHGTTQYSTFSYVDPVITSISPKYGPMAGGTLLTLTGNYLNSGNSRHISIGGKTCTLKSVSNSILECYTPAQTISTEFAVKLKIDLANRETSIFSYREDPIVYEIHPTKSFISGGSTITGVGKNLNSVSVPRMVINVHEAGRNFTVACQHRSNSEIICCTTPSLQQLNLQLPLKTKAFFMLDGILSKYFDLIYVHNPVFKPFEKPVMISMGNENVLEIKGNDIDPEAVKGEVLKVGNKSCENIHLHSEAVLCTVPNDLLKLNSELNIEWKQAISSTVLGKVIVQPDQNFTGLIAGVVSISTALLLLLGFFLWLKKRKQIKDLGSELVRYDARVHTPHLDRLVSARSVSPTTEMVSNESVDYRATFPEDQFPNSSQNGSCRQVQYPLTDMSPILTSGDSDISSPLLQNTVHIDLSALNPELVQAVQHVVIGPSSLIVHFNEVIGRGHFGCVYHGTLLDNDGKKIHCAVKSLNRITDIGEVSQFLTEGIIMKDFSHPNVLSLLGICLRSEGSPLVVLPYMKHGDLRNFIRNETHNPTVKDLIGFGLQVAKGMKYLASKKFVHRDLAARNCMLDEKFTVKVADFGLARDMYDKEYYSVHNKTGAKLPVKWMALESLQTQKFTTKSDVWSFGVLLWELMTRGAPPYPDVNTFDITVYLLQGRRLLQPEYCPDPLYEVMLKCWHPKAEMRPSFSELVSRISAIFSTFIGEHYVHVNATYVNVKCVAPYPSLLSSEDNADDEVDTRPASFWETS
Sequence of KDR (P35968 20-1356): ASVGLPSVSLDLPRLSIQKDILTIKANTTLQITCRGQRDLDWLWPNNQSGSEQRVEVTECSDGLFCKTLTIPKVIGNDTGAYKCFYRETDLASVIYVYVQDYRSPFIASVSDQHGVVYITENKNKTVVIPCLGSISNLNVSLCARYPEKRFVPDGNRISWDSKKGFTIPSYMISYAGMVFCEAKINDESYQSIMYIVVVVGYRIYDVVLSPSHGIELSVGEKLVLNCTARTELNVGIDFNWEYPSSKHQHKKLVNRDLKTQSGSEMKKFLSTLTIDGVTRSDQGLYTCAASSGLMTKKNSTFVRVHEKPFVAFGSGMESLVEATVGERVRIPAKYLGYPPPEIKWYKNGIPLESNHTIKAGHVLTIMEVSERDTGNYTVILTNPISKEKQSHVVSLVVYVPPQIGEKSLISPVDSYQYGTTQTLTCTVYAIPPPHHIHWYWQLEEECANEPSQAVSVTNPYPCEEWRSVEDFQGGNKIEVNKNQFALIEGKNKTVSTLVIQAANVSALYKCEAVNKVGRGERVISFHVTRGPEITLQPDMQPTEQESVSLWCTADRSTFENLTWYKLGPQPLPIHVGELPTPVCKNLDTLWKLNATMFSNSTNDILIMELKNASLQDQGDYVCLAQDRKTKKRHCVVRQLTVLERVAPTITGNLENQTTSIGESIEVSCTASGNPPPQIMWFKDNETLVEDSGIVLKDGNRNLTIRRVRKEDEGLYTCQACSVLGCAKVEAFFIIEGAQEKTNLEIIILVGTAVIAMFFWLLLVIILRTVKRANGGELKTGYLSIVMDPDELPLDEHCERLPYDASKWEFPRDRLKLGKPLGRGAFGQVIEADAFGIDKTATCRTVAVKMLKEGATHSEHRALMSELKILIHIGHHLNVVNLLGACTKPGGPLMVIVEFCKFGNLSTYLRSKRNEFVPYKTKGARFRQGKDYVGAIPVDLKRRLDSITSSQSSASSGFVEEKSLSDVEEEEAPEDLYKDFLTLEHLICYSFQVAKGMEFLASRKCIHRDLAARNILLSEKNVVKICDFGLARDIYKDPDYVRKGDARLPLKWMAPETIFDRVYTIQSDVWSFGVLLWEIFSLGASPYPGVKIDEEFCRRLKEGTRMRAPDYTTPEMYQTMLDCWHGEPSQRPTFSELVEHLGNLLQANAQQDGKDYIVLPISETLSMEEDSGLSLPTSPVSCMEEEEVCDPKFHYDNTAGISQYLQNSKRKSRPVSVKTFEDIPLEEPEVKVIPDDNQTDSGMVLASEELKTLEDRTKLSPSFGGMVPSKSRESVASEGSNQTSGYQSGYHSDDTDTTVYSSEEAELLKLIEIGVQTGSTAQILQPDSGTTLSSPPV

| IC50 (Mer) [nM] | IC50 (Met) [nM] | IC50 (KDR) [nM] | Structure (SMILES) |
| --- | --- | --- | --- |
| ≤ 100 | ≤ 100 | – | COc1cc2nccc(Oc3ccc(NC(=O)c4c5n(c(C)c(-c6ccsc6)c4=O)CCOC5)cc3)c2nc1OC [Compound 312, N-[4-[(6,7-Dimethoxy-1,5-naphthyridin-4-yl)oxy]phenyl]-6-methyl-8-oxo-7-thiophen-3-yl-3,4-dihydro-1H-pyrido [2,1-c][1,4]oxazine-9-carboxamide] |
| ≤ 100 | ≤ 100 | 100 to 300 | COc1cc2nccc(Oc3ccc(NC(=O)c4c5n(cc(-c6ccsc6)c4=O)CCOC5)cc3F)c2nc1OC [Compound 300, N-[4-[(6,7-Dimethoxy-1,5-naphthyridin-4-yl)oxy]-3-fluorophenyl]-8-oxo-7-thiophen-3-yl-3,4-dihydro-1H-pyrido[2,1-c][1,4]oxazine-9-carboxamide] |
| 300 to 1000 | 300 to 1000 | 300 to 1000 | COCCOc1cnc2c(Oc3ccc(NC(=O)c4c(C)n(C)c(C)c(-c5coc6ccccc56)c4=O)cc3F)ccnc2c1 [Compound 265, 5-(1-Benzofuran-3-yl)-N-[3-fluoro-4-[[7-(2-methoxyethoxy)-1,5-naphthyridin-4-yl]oxy]phenyl]-1,2,6-trimethyl-4-oxopyridine-3-carboxamide] |
| ≤ 100 | ≤ 100 | ≤ 100 | CCOCCOCCOc1cc(-n2c(C)ccc(C(=O)Nc3ccc(Oc4ccnc5cc(OC)c(OC)nc45)c(F)c3)c2=O)ccn1 [Compound 224, N-[4-[(6,7-Dimethoxy-1,5-naphthyridin-4-yl)oxy]-3-fluorophenyl]-1-[2-[2-(2-ethoxyethoxy)ethoxy]pyridin-4-yl]-6-methyl-2-oxopyridine-3-carboxamide] |
| – | 300 to 1000 | – | CCOc1ccc(-n2c(C)ccc(C(=O)Nc3ccc(Oc4ccnc5cc(OC)cnc45)c(F)c3)c2=O)nc1 [Compound 213, 1-(5-Ethoxypyridin-2-yl)-N-[3-fluoro-4-[(7-methoxy-1,5-naphthyridin-4-yl)oxy]phenyl]-6-methyl-2-oxopyridine-3-carboxamide] |
| ≤ 100 | ≤ 100 | – | COc1cc2nccc(Oc3ccc(NC(=O)c4c5n(c(C)c(-c6ccco6)c4=O)CCOC5)cc3)c2nc1OC [Compound 315, N-[4-[(6,7-Dimethoxy-1,5-naphthyridin-4-yl)oxy]phenyl]-7-(furan-2-yl)-6-methyl-8-oxo-3,4-dihydro-1H-pyrido[2,1-c][1,4]oxazine-9-carboxamide] |
| ≤ 100 | 100 to 300 | – | COc1cc2nccc(Oc3ccc(NC(=O)c4c5n(c(C)c(-c6cc(C)cs6)c4=O)CCOC5)cc3)c2nc1OC [Compound 313, N-[4-[(6,7-Dimethoxy-1,5-naphthyridin-4-yl)oxy]phenyl]-6-methyl-7-(4-methylthiophen-2-yl)-8-oxo-3,4-dihydro-1H-pyrido[2,1-c][1,4]oxazine-9-carboxamide] |
| – | 100 to 300 | – | CCOc1ccc(-n2c(C)ccc(C(=O)Nc3ccc(Oc4ccnc5cc(OC)c(OC)nc45)c(F)c3)c2=O)nc1 [Compound 212, N-[4-[(6,7-Dimethoxy-1,5-naphthyridin-4-yl)oxy]-3-fluorophenyl]-1-(5-ethoxypyridin-2-yl)-6-methyl-2-oxopyridine-3-carboxamide] |
| ≤ 100 | ≤ 100 | – | COc1cc2nccc(Oc3ccc(NC(=O)c4c5n(c(C)c(-c6cccs6)c4=O)CCOC5)cc3)c2nc1OC [Compound 316, N-[4-[(6,7-Dimethoxy-1,5-naphthyridin-4-yl)oxy]phenyl]-6-methyl-8-oxo-7-thiophen-2-yl-3,4-dihydro-1H-pyrido [2,1-c][1,4]oxazine-9-carboxamide] |
| ≤ 100 | ≤ 100 | – | COc1cc2nccc(Oc3ccc(NC(=O)c4c5n(c(C)c(-c6ccoc6)c4=O)CCOC5)cc3)c2nc1OC [Compound 311, N-[4-[(6,7-Dimethoxy-1,5-naphthyridin-4-yl)oxy]phenyl]-7-(furan-3-yl)-6-methyl-8-oxo-3,4-dihydro-1H-pyrido[2,1-c][1,4]oxazine-9-carboxamide] |
| ≤ 100 | ≤ 100 | – | COc1cc2nccc(Oc3ccc(NC(=O)c4c5n(c(C)c(-c6ccco6)c4=O)CCOC5)cc3F)c2nc1OC [Compound 314, N-[4-[(6,7-Dimethoxy-1,5-naphthyridin-4-yl)oxy]-3-fluorophenyl]-7-(furan-2-yl)-6-methyl-8-oxo-3,4-dihydro-1H-pyrido[2,1-c][1,4]oxazine-9-carboxamide] |
